Results reported in patent publication US20210315869A1, “COMPOUNDS AND METHODS FOR CSK MODULATION AND INDICATIONS THEREFOR” (Plexxikon Inc., priority 2020, published 2021).

How the values were obtained:
LCK = molecular target: T1, LCK (Homo sapiens, UniProt P06239); assay: Human LCK enzymatic assay (AlphaScreen, Poly (Glu4-Tyr) substrate); format: biochemical; conditions: 100 uM ATP; read-out: LCK IC50 (uM) COFACTOR: 100 uM ATP
T1 construct: purchased ProQinase
Method: This assay measures the ability of LCK to phosphorylate a biotinylated peptide containing multiple tyrosine residues in vitro. The LCK enzyme was purchased from ProQinase. The biotinylated Poly (Glu4-Tyr) peptide substrate was purchased from Sigma-Aldrich. The LCK enzyme assay was performed using 1 ng LCK enzyme and 30 nM Poly (Glu4-Tyr) substrate in the presence of 25 mM Hepes pH 7.5, 10 mM MnCl2, 50 mM NaCl, 0.01% Tween-20, 0.5 mM DTT, 0.01% BSA, and 100 μM ATP. A 19 μL volume of the above reaction mixture was added to wells of 384-well AlphaPlate (PerkinElmer GA, USA) containing 1 μL of various concentrations of test compound or DMSO vehicle and incubated for 40 minutes at 25° C. 16 wells containing all the components of reaction mixture and 5% DMSO served as high control. 16 wells containing all the components except ATP of reaction mixture and 5% DMSO served as low control. The enzymatic reaction was stopped by the addition of 5 μL stop/detection mixture containing 25 mM Hepes pH 7.5 100 mM EDTA, and 10 μg/mL streptavidin-coated AlphaScreen donor beads (PerkinElmer GA, USA) and incubated for 20 minutes. A 5 μL mixture containing 25 mM Hepes pH 7.5, 100 mM EDTA, and 10 μg/mL anti-phosphotyrosine antibody PY20-coated AlphaScreen acceptor beads (PerkinElmer GA, USA) was added and the plate was incubated for 1 hour at room temperature. The streptavidin donor beads bind to the biotin moiety on the biotinylated Poly (Glu4-Tyr) substrate and the PY20 antibody-coated acceptor beads bind to tyrosine residues on the substrate that have been directly phosphorylated by LCK. Upon excitation of these beads with laser light at 680 nm, singlet oxygen was produced. This singlet oxygen was rapidly quenched, unless the AlphaScreen PY20 acceptor beads are in close proximity, in which case a proximity signal can be measured at 580 nm. In the presence of catalytic activity, there was a very strong proximity signal. Selective LCK inhibitors affect a decrease in this proximity signal through a decrease in phosphorylation of the Poly (Glu4-Tyr) substrate. The percentage of inhibition at individual concentrations relative to high and low controls was calculated. The data were analyzed by using nonlinear regression to generate IC50 values.

Jurkat/NFAT-RE cells = assay: NFAT reporter assay (luciferase) in Jurkat/NFAT-RE cells; format: cell-based; conditions: Homo sapiens, 0.02 μg/mL anti-CD3 antibody OKT3, 3 hours, read-out: Jurkat EC50 (uM) Cell Assay: Reporter Cell Variant: NFAT response element
Source text: To assess the ability of CSK inhibitors to activate LCK and stimulate signaling downstream of the T-cell receptor, an NFAT reporter assay was used for monitoring of LCK activation in cells through the activation of LCK-dependent signaling through a reporter assay. The Jurkat T-cell cell line was genetically engineered to express a luciferase reporter that is regulated by the NFAT-response element. (Clipstone, N. A., & Crabtree, G. R., Identification of calcineurin as a key signalling enzyme in T-lymphocyte activation, Nature, 357(6380), 695-697, 1992). Stimulation of the T-cell receptor with anti-CD3 antibody increases the expression of the luciferase reporter. To test the ability of CSK inhibitors to stimulate LCK and downstream T-cell signaling, the cells were stimulated with a suboptimal concentration of anti-CD3 ligand, to measure the ability of CSK inhibitors to increase luciferase expression.
This assay measures the signaling activity downstream of the T-cell receptor, specifically the ability of the NFAT transcription factor to be translocated to the nucleus and induce expression of a firefly luciferase gene. Jurkat/NFAT-RE cells stably expressing the NFAT reporter construct were purchased from BPS Bioscience. The assay was performed by plating 40,000 Jurkat/NFAT-RE cells in a 50 μL volume of serum-free growth media in a 96-well plate. Following an overnight incubation, the cells were treated with CSK inhibitors and 0.02 μg/mL anti-CD3 antibody OKT3 (BD Bioscience) for 3 hours at 37° C. High control wells were stimulated with DMSO and 5 μg/mL OKT3 to maximally stimulate the NFAT reporter, and low control wells were stimulated with DMSO and 0.02 μg/mL OKT3. Following the 3 hour incubation, the cells were assayed for viability using CellTiter-Fluor™ (Promega), and for luciferase expression using ONE-Glo™ (Promega). The ONE-Glo™ signal was normalized to the CellTiter-Fluor™ signal, and the percentage of NFAT activation relative to high and low controls was calculated. The data were analyzed by using nonlinear regression to generate EC50 values. Selective CSK inhibitors affect an increase in luciferase expression in the presence of low level stimulation of the T-cell receptor.

CSK = molecular target: T2, CSK (Homo sapiens, UniProt P41240); assay: Human CSK enzymatic assay (AlphaScreen, Poly (Glu4-Tyr) substrate); format: biochemical; conditions: 100 uM ATP; read-out: CSK IC50 (μM) COFACTOR: 100 uM ATP
T2 construct: purchased Thermo Fisher
Method: This assay measures the ability of CSK to phosphorylate a biotinylated peptide containing multiple tyrosine residues in vitro. The CSK enzyme was purchased from Thermo Fisher. The biotinylated Poly (Glu4-Tyr) peptide substrate was purchased from Sigma-Aldrich. The CSK enzyme assay was performed using 0.75 ng CSK enzyme and 30 nM Poly (Glu4-Tyr) substrate in the presence of 25 mM Hepes pH 7.5, 5 mM Mg Acetate, 0.1% NP-40, 1 mM DTT, 0.01% BSA, and 100 μM ATP. A 19 μL volume of the above reaction mixture was added to wells of 384-well AlphaPlate (PerkinElmer GA, USA) containing 1 μL of various concentrations of test compound or DMSO vehicle and incubated for 60 minutes at room temperature. 16 wells containing all the components of reaction mixture and 5% DMSO serve as high control. 16 wells containing all the components except ATP of reaction mixture and 5% DMSO served as low control. The enzymatic reaction was stopped by the addition of 5 μL stop/detection mixture containing 25 mM Hepes pH 7.5 100 mM EDTA, and 5 μg/mL streptavidin-coated AlphaScreen donor beads (PerkinElmer GA, USA) and incubated for 20 minutes. A 5 μL mixture containing 25 mM Hepes pH 7.5, 100 mM EDTA, and 5 μg/mL anti-phosphotyrosine antibody PY20-coated AlphaScreen acceptor beads (PerkinElmer GA, USA) was added and the plate was incubated for 1 hour at room temperature. The streptavidin donor beads bind to the biotin moiety on the biotinylated Poly (Glu4-Tyr) substrate and the PY20 antibody-coated acceptor beads bind to tyrosine residues on the substrate that have been directly phosphorylated by CSK. Upon excitation of these beads with laser light at 680 nm, singlet oxygen was produced. This singlet oxygen was rapidly quenched, unless the AlphaScreen PY20 acceptor beads are in close proximity, in which case a proximity signal can be measured at 580 nm. In the presence of catalytic activity, there was a very strong proximity signal. Selective CSK inhibitors affect a decrease in this proximity signal through a decrease in phosphorylation of the Poly (Glu4-Tyr) substrate. The percentage of inhibition at individual concentrations relative to high and low controls was calculated. The data were analyzed by using nonlinear regression to generate IC50 values. Human LCK enzymatic assay

T1 sequence (P06239 whole entry): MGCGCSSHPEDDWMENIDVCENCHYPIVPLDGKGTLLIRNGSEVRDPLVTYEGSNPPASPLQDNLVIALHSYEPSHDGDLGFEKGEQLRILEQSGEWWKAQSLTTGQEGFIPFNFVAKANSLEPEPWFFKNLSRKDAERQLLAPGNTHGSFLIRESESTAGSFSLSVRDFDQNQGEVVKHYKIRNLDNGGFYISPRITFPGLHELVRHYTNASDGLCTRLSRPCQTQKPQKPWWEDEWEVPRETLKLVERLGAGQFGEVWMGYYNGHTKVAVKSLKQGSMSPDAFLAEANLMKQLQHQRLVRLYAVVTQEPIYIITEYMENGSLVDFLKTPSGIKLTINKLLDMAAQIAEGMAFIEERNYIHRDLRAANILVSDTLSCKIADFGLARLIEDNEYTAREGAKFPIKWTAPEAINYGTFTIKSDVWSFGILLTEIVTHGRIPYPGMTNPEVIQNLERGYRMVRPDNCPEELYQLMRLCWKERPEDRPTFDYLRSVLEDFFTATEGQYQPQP
T2 sequence (P41240 whole entry): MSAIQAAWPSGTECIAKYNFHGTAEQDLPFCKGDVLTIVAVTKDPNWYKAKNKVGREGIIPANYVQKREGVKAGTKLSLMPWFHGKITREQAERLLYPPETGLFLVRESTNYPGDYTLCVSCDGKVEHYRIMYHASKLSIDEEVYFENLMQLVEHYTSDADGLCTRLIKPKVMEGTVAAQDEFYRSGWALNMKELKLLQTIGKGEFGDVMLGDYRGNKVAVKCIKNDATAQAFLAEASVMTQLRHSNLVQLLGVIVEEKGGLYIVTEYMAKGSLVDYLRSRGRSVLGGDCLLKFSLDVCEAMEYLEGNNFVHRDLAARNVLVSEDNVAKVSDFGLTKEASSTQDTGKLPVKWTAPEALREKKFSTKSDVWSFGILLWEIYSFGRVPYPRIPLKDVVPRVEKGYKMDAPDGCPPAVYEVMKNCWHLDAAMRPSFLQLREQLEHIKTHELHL

Row | SMILES | IC50 (LCK) [µM] | EC50 (Jurkat/NFAT-RE cells) [µM] | IC50 (CSK) [µM]
1 | Nc1cc2c(cn1)cc(-c1c(F)ccc(NS(=O)(=O)c3ccc4ncsc4c3F)c1F)c(=O)n2CC1CC1 [P-0001, N-(3-(7-amino-1-(cyclopropylmethyl)-2-oxo-1,2-dihydro-1,6-naphthyridin-3-yl)-2,4-difluorophenyl)-7-fluorobenzo[d]thiazole-6-sulfonamide] | 0.001 to 0.5 | 0.001 to 0.5 | 0.001 to 0.5
2 | Nc1cc2c(cn1)cc(-c1c(F)ccc(NS(=O)(=O)c3cc4scnc4cc3F)c1F)c(=O)n2CC1CC1 [P-0002, N-(3-(7-amino-1-(cyclopropylmethyl)-2-oxo-1,2-dihydro-1,6-naphthyridin-3-yl)-2,4-difluorophenyl)-5-fluorobenzo[d]thiazole-6-sulfonamide] | 0.5 to 5 | 0.001 to 0.5 | 0.001 to 0.5
3 | Nc1cc2c(cn1)cc(-c1c(F)ccc(NS(=O)(=O)c3cc4scnc4cc3F)c1F)c(=O)n2CC(F)F [P-0003, N-(3-(7-amino-1-(2,2-difluoroethyl)-2-oxo-1,2-dihydro-1,6-naphthyridin-3-yl)-2,4-difluorophenyl)-5-fluorobenzo[d]thiazole-6-sulfonamide] | 5 to 100 | 0.001 to 0.5 | 0.001 to 0.5
4 | COCCn1c(=O)c(-c2c(F)ccc(NS(=O)(=O)c3cc4scnc4cc3F)c2F)cc2cnc(N)cc21 [P-0004, N-(3-(7-amino-1-(2-methoxyethyl)-2-oxo-1,2-dihydro-1,6-naphthyridin-3-yl)-2,4-difluorophenyl)-5-fluorobenzo[d]thiazole-6-sulfonamide] | 5 to 100 | 0.5 to 5 | 0.001 to 0.5
5 | CNc1cc2c(cn1)cc(-c1c(F)ccc(NS(=O)(=O)c3cc4scnc4cc3F)c1F)c(=O)n2CC1CC1 [P-0005, N-(3-(1-(cyclopropylmethyl)-7-(methylamino)-2-oxo-1,2-dihydro-1,6-naphthyridin-3-yl)-2,4-difluorophenyl)-5-fluorobenzo[d]thiazole-6-sulfonamide] | 5 to 100 | 0.001 to 0.5 | 0.001 to 0.5
6 | CC1(n2c(=O)c(-c3c(F)ccc(NS(=O)(=O)c4cc5scnc5cc4F)c3F)cc3cnc(N)cc32)CC1 [P-0006, N-(3-(7-amino-1-(1-methylcyclopropyl)-2-oxo-1,2-dihydro-1,6-naphthyridin-3-yl)-2,4-difluorophenyl)-5-fluorobenzo[d]thiazole-6-sulfonamide] | 5 to 100 | 0.5 to 5 | 0.001 to 0.5
7 | Nc1cc2[nH]c(=O)c(-c3c(F)ccc(NS(=O)(=O)c4cc5scnc5cc4F)c3F)cc2cn1 [P-0007, N-(3-(7-amino-2-oxo-1,2-dihydro-1,6-naphthyridin-3-yl)-2,4-difluorophenyl)-5-fluorobenzo[d]thiazole-6-sulfonamide] | 5 to 100 | 0.5 to 5 | 0.001 to 0.5
8 | Nc1cc2c(cn1)cc(-c1c(F)ccc(NS(=O)(=O)c3cc4scnc4cc3F)c1F)c(=O)n2C1CC1 [P-0008, N-(3-(7-amino-1-cyclopropyl-2-oxo-1,2-dihydro-1,6-naphthyridin-3-yl)-2,4-difluorophenyl)-5-fluorobenzo[d]thiazole-6-sulfonamide] | 5 to 100 | 0.001 to 0.5 | 0.001 to 0.5
9 | Nc1cc2c(cn1)cc(-c1c(F)ccc(NS(=O)(=O)c3cc4scnc4cc3F)c1F)c(=O)n2C1CC(F)(F)C1 [P-0009, N-(3-(7-amino-1-(3,3-difluorocyclobutyl)-2-oxo-1,2-dihydro-1,6-naphthyridin-3-yl)-2,4-difluorophenyl)-5-fluorobenzo[d]thiazole-6-sulfonamide] | 5 to 100 | 0.5 to 5 | 0.001 to 0.5
10 | O=c1c(-c2c(F)ccc(NS(=O)(=O)c3cc4scnc4cc3F)c2F)cc2cnc(NCCO)cc2n1CC1CC1 [P-0010, N-(3-(1-(cyclopropylmethyl)-7-((2-hydroxyethyl)amino)-2-oxo-1,2-dihydro-1,6-naphthyridin-3-yl)-2,4-difluorophenyl)-5-fluorobenzo[d]thiazole-6-sulfonamide] | 5 to 100 | 0.5 to 5 | 0.001 to 0.5
11 | COCCNc1cc2c(cn1)cc(-c1c(F)ccc(NS(=O)(=O)c3cc4scnc4cc3F)c1F)c(=O)n2CC1CC1 [P-0011, N-(3-(1-(cyclopropylmethyl)-7-((2-methoxyethyl)amino)-2-oxo-1,2-dihydro-1,6-naphthyridin-3-yl)-2,4-difluorophenyl)-5-fluorobenzo[d]thiazole-6-sulfonamide] | 5 to 100 | 0.5 to 5 | 0.001 to 0.5
12 | Nc1cc2c(cn1)cc(-c1c(F)ccc(NS(=O)(=O)c3ccc4ncsc4c3F)c1F)c(=O)n2C1CC1 [P-0027, N-(3-(7-amino-1-cyclopropyl-2-oxo-1,2-dihydro-1,6-naphthyridin-3-yl)-2,4-difluorophenyl)-7-fluorobenzo[d]thiazole-6-sulfonamide] | – | 0.001 to 0.5 | 0.001 to 0.5
13 | Cc1c(-c2cccc(NS(=O)(=O)c3cc4scnc4cc3F)c2F)c(=O)n(C2CC2)c2cc(N)ncc12 [P-0028, N-(3-(7-amino-1-cyclopropyl-4-methyl-2-oxo-1,2-dihydro-1,6-naphthyridin-3-yl)-2-fluorophenyl)-5-fluorobenzo[d]thiazole-6-sulfonamide] | 5 to 100 | – | 5 to 100
14 | Nc1cc2c(cn1)cc(-c1cccc(NS(=O)(=O)c3cc4scnc4cc3F)c1F)c(=O)n2C1CC1 [P-0029, N-(3-(7-amino-1-cyclopropyl-2-oxo-1,2-dihydro-1,6-naphthyridin-3-yl)-2-fluorophenyl)-5-fluorobenzo[d]thiazole-6-sulfonamide] | 5 to 100 | – | 0.001 to 0.5
